# In patent publication US20120121705A1, “Pharmaceutical Or Cosmetic Or Dietetic Composition Suitable For Promoting A Hair Pigmentation Effect” (priority 2009, published 2012):
# Tested on: hair follicle pigmentation unit
# Assay: Hair pigmentation: quantitative Masson-Fontana melanin staining in organ-cultured human scalp skin / hair follicles
# Assay type: cell-based
# Conditions: spermidine 3HCl 0.1 μM, given at each medium change (every 48 hours), 6 days organ culture; compared with vehicle; FIG. 1 and FIG. 2
# Protocol: The skin of normal human scalp was taken from a person who had undergone a routine face lifting surgery after receiving the informed consent. All the experiments were carried out according to the Helsinki principles, with the ethical committee's approval.
# The tissues subject to biopsy with 3-4 mm cylindrical scalpel were cultured at 37° C. for 6 days in Williams E medium (Biochrom, Cambridge, U.K.), integrated with 100 IU ml^−1 penicillin, 10 μg ml^−1 streptomycin (Gibco, Karlsruhe, Germany), 10 μg ml^−1 insulin (Sigma, Taukfirchen, Germany), 10 ng ml^−1 hydrocortisone (Sigma) and 2 mmol L^−1 (L-glutamine (Invitrogen, Paisley, U.K.). […]
# The Masson-Fontana staining was carried out for the histochemical display of melanin on frozen sections. Melanin was stained in the form of brown granules and the pigmentation level was determined through the quantitative Masson-Fontana technique (Ito N., Ito T., Kromminga A., Bettermann A., Takigawa M., Kees F., Straub R. H., and Paus R. (2005): Human hair follicles display a functional equivalent of the hypothalamic-pituitary-adrenal axis and synthesize cortisol. FASEB J 19, 1332-4). […]
# The staining intensity was analyzed in a defined reference region of the hair follicle pigmentation unit using the ImageJ software (National Institute of Health). […]
structure (smiles),measurement,value
"NCCCCNCCCN [spermidine, N-(3-aminopropyl)butan-1,4-diamine]","pigmentation intensity in hair follicles (melanin, Masson-Fontana staining)",increase of melanin
